Data as given in publication PMC3526353 (The Journal of Experimental Medicine, 2012).
pKd: −log10 of the molar value.

Target: receptor for advanced glycation end products (RAGE) (Homo sapiens, UniProt Q15109)
Experiment: SPR
Format: binding

Chain of receptor for advanced glycation end products (RAGE) (Q15109 23-342 limits assumed): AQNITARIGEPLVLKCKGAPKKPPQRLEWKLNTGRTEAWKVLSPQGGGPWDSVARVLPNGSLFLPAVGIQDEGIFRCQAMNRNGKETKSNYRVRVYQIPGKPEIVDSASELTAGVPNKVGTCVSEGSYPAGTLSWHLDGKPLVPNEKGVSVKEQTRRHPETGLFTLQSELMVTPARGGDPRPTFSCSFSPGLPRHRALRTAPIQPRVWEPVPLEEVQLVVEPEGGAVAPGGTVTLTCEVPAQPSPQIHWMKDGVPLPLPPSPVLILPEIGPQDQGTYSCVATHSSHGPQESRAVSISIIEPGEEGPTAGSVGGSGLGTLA

- pKd: 7.07
Compound: CCCCCCCC/C=C\CCCCCCCC(=O)OC[C@@H](O)COP(=O)(O)O [LPA, 1-oleoyl-2-hydroxy-sn-glycero-3-phosphate]
